Data published in the supplement of paper PMC4862054.

Key:
Details in all cases: incubation time: 72 h
MDA-MB-436 [1] = assay: normalised response (% of control), CellTiter-Glo; higher = more viable cells (100 = DMSO, 0 = benzethonium chloride kill control)
Method in brief: (§1)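 Plates were normalised with 0.1 % DMSO as 100 and a positive kill control as 0. Breast cancer cell lines in 20 µl suspension had been seeded into 384-well plates with compound at 5 concentrations in 10-fold steps over a compound-specific 10,000-fold range, incubated 72 h, and read for CellTox Green fluorescence (485/520 nm) followed by CellTiter-Glo luminescence. Each value is the normalised signal at a single concentration.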

HCC1143 [2] = assay: as above
Method in brief: as §1

BT-549 [3] = assay: as above
Method in brief: as §1

MDA-MB-453 [4] = assay: as above
Method in brief: as §1

CAL-148 [5] = assay: as above
Method in brief: as §1

DU-4475 [6] = assay: as above
Method in brief: as §1

MDA-MB-231 [7] = assay: as above
Method in brief: as §1

SK-BR-3 = assay: as above
Method in brief: as §1

BT-474 [8] = assay: as above
Method in brief: as §1

MCF-10A [9] = assay: as above
Method in brief: as §1

MDA-MB-468 [10] = assay: as above
Method in brief: as §1

HDQ-P1 = assay: as above
Method in brief: as §1

Hs578T = assay: as above
Method in brief: as §1

CAL-120 [11] = assay: as above
Method in brief: as §1

CAL-85-1 [12] = assay: as above
Method in brief: as §1

MFM-223 [13] = assay: as above
Method in brief: as §1

HCC1937 [14] = assay: as above
Method in brief: as §1

CAL-51 [15] = assay: as above
Method in brief: as §1

HCC1599 [16] = assay: as above
Method in brief: as §1

MDA-MB-436 [17] = assay: normalised response (% of control), CellTox Green; higher = less cell death (100 = DMSO, 0 = benzethonium chloride kill control)
Method in brief: as §1

HCC1143 [18] = assay: as above
Method in brief: as §1

BT-549 [19] = assay: as above
Method in brief: as §1

MDA-MB-453 [20] = assay: as above
Method in brief: as §1

CAL-148 [21] = assay: as above
Method in brief: as §1

DU-4475 [22] = assay: as above
Method in brief: as §1

MDA-MB-231 [23] = assay: as above
Method in brief: as §1

BT-474 [24] = assay: as above
Method in brief: as §1

MCF-10A [25] = assay: as above
Method in brief: as §1

MDA-MB-468 [26] = assay: as above
Method in brief: as §1

CAL-120 [27] = assay: as above
Method in brief: as §1

CAL-85-1 [28] = assay: as above
Method in brief: as §1

MFM-223 [29] = assay: as above
Method in brief: as §1

HCC1937 [30] = assay: as above
Method in brief: as §1

CAL-51 [31] = assay: as above
Method in brief: as §1

HCC1599 [32] = assay: as above
Method in brief: as §1

Row | SMILES | normalised response (MDA-MB-436 [1]) [%] | normalised response (HCC1143 [2]) [%] | normalised response (BT-549 [3]) [%] | normalised response (MDA-MB-453 [4]) [%] | normalised response (CAL-148 [5]) [%] | normalised response (DU-4475 [6]) [%] | normalised response (MDA-MB-231 [7]) [%] | normalised response (SK-BR-3) [%] | normalised response (BT-474 [8]) [%] | normalised response (MCF-10A [9]) [%] | normalised response (MDA-MB-468 [10]) [%] | normalised response (HDQ-P1) [%] | normalised response (Hs578T) [%] | normalised response (CAL-120 [11]) [%] | normalised response (CAL-85-1 [12]) [%] | normalised response (MFM-223 [13]) [%] | normalised response (HCC1937 [14]) [%] | normalised response (CAL-51 [15]) [%] | normalised response (HCC1599 [16]) [%] | normalised response (MDA-MB-436 [17]) [%] | normalised response (HCC1143 [18]) [%] | normalised response (BT-549 [19]) [%] | normalised response (MDA-MB-453 [20]) [%] | normalised response (CAL-148 [21]) [%] | normalised response (DU-4475 [22]) [%] | normalised response (MDA-MB-231 [23]) [%] | normalised response (BT-474 [24]) [%] | normalised response (MCF-10A [25]) [%] | normalised response (MDA-MB-468 [26]) [%] | normalised response (CAL-120 [27]) [%] | normalised response (CAL-85-1 [28]) [%] | normalised response (MFM-223 [29]) [%] | normalised response (HCC1937 [30]) [%] | normalised response (CAL-51 [31]) [%] | normalised response (HCC1599 [32]) [%]
1 | COc1cccc2cc(-c3nc([C@H]4CC[C@H](C(=O)O)CC4)n4ncnc(N)c34)[nH]c12 [OSI-027] (10 nM) | 93.8 | 96.6 | 93.8 | 94.3 | 88.7 | 97.1 | 96 | 77.3 | 101 | 98.8 | 94.6 | 100 | 97.7 | 101 | 90.7 | 93 | 94.2 | 82.7 | 92.7 | – | – | – | – | – | – | – | – | – | – | – | – | – | – | – | –
2 | O=C(c1ccc(C(=O)N2CCC(N3CCCC3)CC2)c(Nc2ccccc2)c1)N1CCC(N2CCCC2)CC1 [UNC1215] (3000 nM) | 92.8 | 93.9 | 96.9 | 98 | 94.9 | 98.3 | 91.2 | 93.5 | 95 | 108 | 91.6 | 100 | 95.3 | 98 | 94.7 | 92.6 | 94 | 115 | 107 | 96.3 | 109 | 85.1 | 99.2 | 99.7 | 98.5 | 98 | 96.9 | 101 | 80.5 | 99.3 | 96.8 | 101 | 111 | 114 | 99.8
